Measured values published in patent US8252832B2, “Kinesin inhibitors as cancer therapeutics” (Novartis AG, priority 2007, dated 2012).
Several values for one entry are separate records, joined by “and”; a condition that tells them apart may be missing. Equal entries are not always repeated. Marks after values point to notes of the source that are not given here.

Tests used:
[1] = system: human multiple myeloma KMS-11-luc tumor xenografts; experiment: Subcutaneous KMS-11-luc tumor xenograft model, tumor response; assay type: in vivo, mouse
Procedure: Experiments were performed using immunodeficient SCID-Beige female mice approximately 7-8 weeks old (Charles River Laboratories, Wilmington, Mass.). […] Routine animal care and assurance of welfare were as described above.
Human KMS-11-luc multiple myeloma cells were obtained from the laboratory of Suzanne Trudel at the University of Toronto (Ontario, Canada) and tested to be free of Mycoplasma sp. and murine viruses in the IMPACT1 PCR assay panel (RADIL, University of Missouri, Columbia, Mo.). Prior to our receiving this cell line, it had been stably engineered to express luciferase by retroviral transfection of the pGC-gfp/luc vector. KMS-11-luc cells were grown in Iscove's medium supplemented with 2 mmol/L L-glutamine (Mediatech, Inc., Hemdon, Va.) and 10% fetal bovine serum (JRH Biosciences, catalog #12003-1000M). These cells were grown as suspension cultures, maintained at 37° C. in a humidified atmosphere containing 5% carbon dioxide. Cells were cultured for fewer than 10 passages prior to use. Cells were harvested at approximately 2 million cells/mL, and centrifuged at ˜800×g for 5 minutes at 4° C. and then resuspended in a 1:1 mixture of cold Hank's balanced salt solution (HBSS) and Matrigel™ (Mediatech Inc., catalog #21-021-CV; BD Biosciences, catalog #354234, respectively) at a concentration of 50 million cells/mL for implantation subcutaneously (injection volume of 0.2 mL). Alternatively, for the disseminated disease model, cells were prepared only in cold HBSS at a concentration of 100 million cells/mL for intravenous (i.v.) implantation via the tail vein (injection volume of 0.1 mL).
Compound IIa and SB-715992 (free base) were formulated in 20% Captisol for a dose volume of 8 mL/kg. Doses were adjusted to each animal's body weight.
For the efficacy evaluation in the subcutaneous tumor model, 10 million cells combined in a 1:1 mixture of HBSS and Matrigel™ were injected subcutaneously in the right flank in a total volume of […]. […] Tumor volume was calculated as (L×W2)/2. […] Data analysis was as described above.

[2] = system: RL; experiment: Cell cycle profile by FACS (propidium iodide DNA content); assay type: cell-based, human; settings: 24 and 48 hr
Procedure: Lymphoma cell line cells were treated with the KSP inhibitors of the invention and analyzed by FACs analysis. Approximately 2×10^5 cells were harvested, cell pellets were washed with cold PBS twice and re-suspended in 500 μL cold PBS. Cells were fixed by adding 8 mL cold 80% ethanol while vortexing slowly. After 15 minutes of incubation fixed cells were washed twice with PBS and cell pellets were re-suspended in 1 mL of PI/RNASE staining buffer (BD Pharmingen™ catalog #550825) and incubated for 15 minutes at 37° C. protected from light. Propidium iodide (PI) is a fluorescent vital dye that stains both DNA and RNA. Therefore the RNA must be removed by digestion with ribonuclease (RNase). Stained cells were passed through a cell strainer into a FACS tube to reduce the number of cell aggregates (BD Falcon #352235) prior to FACS analysis. The DNA content of the fixed and stained cells was analyzed by the BD FACSCalibur flow cytometer using the CellQuest software.
Following mitotic arrest, cells have several options including coming out of arrest and dividing normally, undergoing apoptosis directly, or exiting mitosis without cytokinesis (a phenomenon called mitotic slippage). If cells undergo mitotic slippage, they can enter a pseudo-G1 and then either continue to cycle, senesce, or undergo apoptosis. […]

[3] = system: panel of cell lines derived from solid tumors; experiment: Solid tumor cell line panel, fraction of surviving cells after 72 hours; assay type: cell-based
Procedure: Compound IIa was tested against a panel of cell lines derived from solid tumors as described in See also McDermott, U., Sharma, S. V., Dowell, L., Greninger, P., Montagut, C., Lamb, J., Archibald, H., Raudales, R., Tam, A., Lee, D., Rothenberg, S. M., Supko, J. G., Sordella, R., Ulkus, L. E., Iafrate, A. J., Maheswaran, S., Njauw, C. N., Tsao, H., Drew, L., Hanke, J. H., Ma, X. J., Erlander, M. G., Gray, N. S., Haber, D. A., and Settleman, J. (2007), Identification of genotype-correlated sensitivity to selective kinase inhibitors by using high-throughput tumor cell line profiling. Proc. Natl. Acad. Sci. U.S. A 104, 19936-19941 (2007).) Cells were treated with the compound for 72 hours and the fraction of surviving cells, as compared to an untreated control, was reported. Table 17 lists the name of the cell line, the organ of origin, the fraction of surviving cells at the three concentrations tested (0.2 nM, 2.0 nM and 20 nM) and a sensitivity score. The sensitivity score was from 5 (most sensitive) to 1 (least sensitive) and the scoring was as follows: 5=surviving fraction≦0.2 at 0.2 nM; 4=0.2<surviving fraction≦0.5 at 0.2 nM; 3=surviving fraction>0.5 at 0.2 nM and ≦0.5 at 2.0 nM; 2=surviving fraction>0.5 at 2.0 nM and ≦0.5 at 20 nM; 1=surviving fraction>0.5 at 20 nM.

CC(C)(C)[C@H](c1nc(-c2cc(F)ccc2F)cn1Cc1ccccc1)N(CC[C@H](N)CF)C(=O)CO [Compound IIa]
T/C, Day 31 (%) ([1]; 0.25 mg/kg, Q4d × 3, i.v): 25% | Δ Tumor volume, Day 31 ([1]; 0.25 mg/kg, Q4d × 3, i.v): 527 ± 152 mm^3 | Max. % Regression (Day) ([1]; 0.25 mg/kg, Q4d × 3, i.v, D7): 24 (D7) % | T/C, Day 31 (%) ([1]; 0.5 mg/kg, Q4d × 3, i.v): 10% | Δ Tumor volume, Day 31 ([1]; 0.5 mg/kg, Q4d × 3, i.v): 221 ± 71 mm^3 | Max. % Regression (Day) ([1]; 0.5 mg/kg, Q4d × 3, i.v, D10): 42 (D10) % | T/C, Day 31 (%) ([1]; 1 mg/kg, Q4d × 3, i.v): 0.1* % | Δ Tumor volume, Day 31 ([1]; 1 mg/kg, Q4d × 3, i.v): 1.5 ± 26 mm^3 | Max. % Regression (Day) ([1]; 1 mg/kg, Q4d × 3, i.v, D17, listed as COMPOUND IIa): 56 (D17) % | Max. % Regression (Day) ([1]; 1 mg/kg, Q4d × 3, i.v, D17, listed as compound IIa): 56% | cell cycle profile (DNA content, FACS) [2]: remained arrested in mitosis | average sensitivity score ([3]; brain): 3.21 | average sensitivity score ([3]; cervix): 3.00 | average sensitivity score ([3]; ovary): 3.38 | average sensitivity score ([3]; skin): 3.02 | average sensitivity score ([3]; stomach): 3.32 | average sensitivity score ([3]; thyroid): 3.00

CC(=O)O[C@H]1C(=O)[C@@]2(C)[C@H]([C@H](OC(=O)c3ccccc3)[C@]3(O)C[C@H](OC(=O)[C@H](O)[C@@H](NC(=O)c4ccccc4)c4ccccc4)C(C)=C1C3(C)C)[C@]1(OC(C)=O)CO[C@@H]1C[C@@H]2O [Paclitaxel, reference compound]
T/C, Day 31 (%) ([1]; 30 mg/kg, Q4d × 3, i.p.): 30% | Δ Tumor volume, Day 31 ([1]; 30 mg/kg, Q4d × 3, i.p.): 640 ± 190 mm^3 | Max. % Regression (Day) ([1]; 30 mg/kg, Q4d × 3, i.p., D3): 5 (D3) %

Cc1ccc(C(=O)N(CCCN)[C@@H](c2nc3cc(Cl)ccc3c(=O)n2Cc2ccccc2)C(C)C)cc1 [SB-715992, Ispinesib, reference compound]
Δ Tumor volume, Day 31 ([1]; 7.5 mg/kg, Q4d × 3, i.v.): −46 ± 19 mm^3 | Max. % Regression (Day) ([1]; 7.5 mg/kg, Q4d × 3, i.v., D14): 49% and 49, (D14) %
